Experimental data reported in US20090048301A1 (IMCLONE SYSTEMS INCORPORATED, priority 2003, published 2009).

Legend:
[1] = tested on: bovine tubulin; test: In vitro tubulin polymerization assay (turbidity at 340 nm); format: biochemical; conditions: 10 μM compound, 30 minute data point, vs 1% DMSO control
Summary of the method: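 Percent inhibition derives from turbidity (340 nm) at 30 min relative to 1% DMSO controls, read every minute at 37° C. Polymerization mix: 3 mg/ml bovine tubulin, <3% MAPs, in PIPES pH 7 G-PEM with 1 mM GTP, 1 mM MgCl2, 5% glycerol; enhancers also detectable.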

[2] = tested on: A431, human epidermoid carcinoma cells; test: Cell cycle analysis (FACS), mitotic arrest in G2/M; format: cell-based; conditions: Homo sapiens, A-431, 24 h, read-out: FACS Assay: concentration required to achieve inhibition in FACS assay
Protocol: The cell cycle analysis was performed as follows. Cancer cells (A431, human epidennoid carcinoma cells) were maintained in culture in D-MEM media with 10% FBS and 1 mg/ml glutamate. Prior to experiment, cells were plated onto 6-well plates for a final density of 500,000 cells/well at the time of treatment. Cells were treated with the compounds of the invention at a concentration of about 0.01 to 1 μM final concentrations (final 0.1% DMSO) for 24 hours, then trypsinized, collected, rinsed in PBS (phosphate buffered saline), and fixed in 70% cold ethanol overnight at 4° C. The cells were then rinsed with PBS, resuspended in PBS with 0.2% Tween, RNAse was added (final 1 μg/ml), cells were incubated at 37° C. for 15 min, followed by addition of Propidium Iodide (final 50 μg/ml), and a 30 minute incubation at room temperature. DNA ploidy was analyzed using flow cytometers (Epics Excel, Beckman-Coulter, or Guava PCA-96, Guava Technologies) and mitotic arrest characterized by massive accumulation of cells in the G2/M phase of cell cycle.
Cancer cells (A431, human epidermoid cells) were maintained in culture in D-MEM media with 10% FBS and 1 mg/ml glutamate. Prior to experiment, cells are plated onto 6-well plates for a final density of 500,000 cells/well at the time of treatment. Cells were treated with compounds at 0.01-1 μM final concentrations (final […] DMS 0) for 24 hours, then trypsinized, collected, rinsed in PBS (phosphate buffered saline), and fixed in 70% cold ethanol overnight at 4° C. Cells were then rinsed with PBS, resuspended in PBS with 0.2% Tween, RNAse was added (final 1 μg/ml), cells were incubated at 37° C. for 15 min, followed by addition of Propidium Iodide (final 50 μg/ml), and a 30 minute incubation at room temperature. DNA ploidy was analyzed using cell sorters (Epics Excel, Beckman-Coulter, or Guava PCA-96, Guava Technologies) and mitotic arrest characterized by massive accumulation of cells in the G2/M phase of cell cycle.

Compound | Tubulin Assay: percent inhibition at 10 μM based on 30 minute data [1] [%] | minimal effective concentration [2] [µM]
c1ccc(-c2nnc(Nc3ccc4c(c3)OCO4)[nH]2)c(NCc2ccc3[nH]ncc3c2)c1 [Compound 119, Benzo[1,3]dioxol-5-yl-(5-{2-[(1H-indazol-5-ylmethyl)-amino]-phenyl}-4H-[1,2,4]triazol-3-yl)-amine] | 76 | 1
c1ccc(-c2nnc(Nc3ccc4c(c3)OCCO4)[nH]2)c(NCc2ccncc2)c1 [Compound 122, (2,3-Dihydro-benzo[1,4]dioxin-6-yl)-(5-{2-[(pyridin-4-ylmethyl)-amino]-phenyl}-4H-[1,2,4]triazol-3-yl)-amine] | 84 | 1
COc1cccc(Nc2nnc(-c3ccccc3NCc3ccc4[nH]ncc4c3)[nH]2)c1 [Compound 123, (5-{2-[(1H-Indazol-5-ylmethyl)-amino]-phenyl}-4H-[1,2,4]triazol-3-yl)-(3-methoxy-phenyl)-amine] | 75 | 1
FC(F)(F)c1ccc(-c2nnc(Nc3ccc4c(c3)OCO4)[nH]2)c(NCc2ccncc2)c1 [Compound 124, Benzo[1,3]dioxol-5-yl-(5-{2-[(pyridin-4-ylmethyl)-amino]-4-trifluoromethyl-phenyl}-4H-[1,2,4]triazol-3-yl)-amine] | 93 | 0.1
O=S(=O)(Nc1ccccc1-c1nnc(Nc2ccc3c(c2)OCCO3)[nH]1)c1cccc(OC(F)(F)F)c1 [Compound 127, N-{2-[5-(2,3-Dihydro-benzo[1,4]dioxin-6-ylamino)-4H-[1,2,4]triazol-3-yl]-phenyl}-3-trifluoromethoxy-benzenesulfonamide] | 61 | 10
CS(=O)(=O)c1ccc(-c2nnc(-c3ccccc3NCc3ccc4c(c3)OCO4)[nH]2)cc1 [Compound 133, Benzo[1,3]dioxol-5-ylmethyl-{2-[5-(4-methanesulfonyl-phenyl)-4H-[1,2,4]triazol-3-yl]-phenyl}-amine] | 86 | 1
COc1cccc(-c2nnc(-c3ccccc3NCc3ccc4[nH]ncc4c3)[nH]2)c1 [Compound 136, (1H-Indazol-5-ylmethyl)-{2-[5-(3-methoxy-phenyl)-4H-[1,2,4]triazol-3-yl]-phenyl}-amine] | 32 | 10
FC(F)(F)Oc1cccc(-c2nnc(-c3ccccc3NCc3ccc4c(c3)OCO4)[nH]2)c1 [Compound 141, Benzo[1,3]dioxol-5-ylmethyl-{2-[5-(3-trifluoromethoxy-phenyl)-4H-[1,2,4]triazol-3-yl]-phenyl}-amine] | 88 | 0.1
Brc1ccc(-c2nnc(-c3ccccc3NCc3ccc4[nH]ncc4c3)[nH]2)cc1 [Compound 145, {2-[5-(4-Bromo-phenyl)-4H-[1,2,4]triazol-3-yl]-phenyl}-(1H-indazol-5-ylmethyl)-amine] | 58 | 0.1
COc1cccc(-c2nnc(-c3ccccc3NCc3ccc4c(c3)OCO4)[nH]2)c1 [Compound 148, Benzo[1,3]dioxol-5-ylmethyl-{2-[5-(3-methoxy-phenyl)-4H-[1,2,4]triazol-3-yl]-phenyl}-amine] | 71 | 10
Fc1ccc(CNc2ncccc2-c2nnc(Nc3ccc4c(c3)OCO4)o2)cc1F [Compound 155, {3-[5-(Benzo[1,3]dioxol-5-ylamino)-[1,3,4]oxadiazol-2-yl]-pyridin-2-yl}-(3,4-difluoro-benzyl)-amine] | 91 | 1
